Consider four compounds from patent publication US11591323B2, “Muscarinic agonists as non-steroidal and non-opioid analgesics and methods of use thereof” (Barry University, priority 2019, dated 2023).

Holding throughout (type): cell-based
Experiment [1] relates to brain cortex (rich in M1). Nature of the experiment: accumulation of IPX in dissipated rat brain cortex. The settings on record: in words. As to the method: Effects of compounds 6A and 7A were then measured ex vivo in dissipated rat tissues (FIG. 5). Accumulation of IPX was measured in dissipated brain cortex (rich in M1 & M3), submaxillary gland (M1 & M3), and ventral tegmental area (M5). Native tissues express about 10-times less muscarinic receptors than CHO cell lines. Accumulation of cAMP was measured in cerebellum (M2) and striatum (M4).
Rat dissipated tissues: Suspension of dissipated tissues from rat brain cortex, cerebellum, striatum, ventral tegmental area (VTA) and submaxillary glands was prepared as described previously in supplementary methods. Adult 8-weeks old male Wistar rats were scarified by cervical dislocation in accordance with current legislative and guidelines under permission of Czech Ministry of Agriculture 16OZ23113/2017-17214. Tissues were dissected immediately. Submaxillary glands were minced by scissors. Tissues were dispersed by incubation for 15 min at 37° C. in KHB supplemented with trypsin and trituration every 5 min. Large undissipated parts were removed by cell mesh. […]
Measurements of the production of cAMP and inositol phosphates: Levels of second messengers cAMP and inositol phosphates were determined in radiochemical chromatography assays as described previously. […] Samples were applied to alumina columns (1.5 g of alumina per column), washed with 2 ml ammonium acetate (pH=7.0) and eluted from columns with 4 ml ammonium acetate and measured by liquid scintillation spectrometry. […] After separation of water and organic phases, 0.6 ml of water phase was applied to Dowex columns (1.5 g of Dowex per column), washed by 20 ml of 60 mM ammonium formate/5 mM sodium borate buffer and eluted from columns with 4 ml of 1M ammonium formate/0.1 formic acid buffer and measured by liquid scintillation spectrometry.
To exclude the possibility that the observed effects of compounds 6A and 7A are the result of overexpression in the heterologous system, functional response to the compounds was measured ex vivo in dissipated native rat tissues. […] Accumulation of cAMP was measured in M2-rich cerebellum and M4-rich striatum.

For experiment [2], the target named is T1, M2 muscarinic receptor (Homo sapiens, UniProt P08172).
T1 sequence (P08172 1-466): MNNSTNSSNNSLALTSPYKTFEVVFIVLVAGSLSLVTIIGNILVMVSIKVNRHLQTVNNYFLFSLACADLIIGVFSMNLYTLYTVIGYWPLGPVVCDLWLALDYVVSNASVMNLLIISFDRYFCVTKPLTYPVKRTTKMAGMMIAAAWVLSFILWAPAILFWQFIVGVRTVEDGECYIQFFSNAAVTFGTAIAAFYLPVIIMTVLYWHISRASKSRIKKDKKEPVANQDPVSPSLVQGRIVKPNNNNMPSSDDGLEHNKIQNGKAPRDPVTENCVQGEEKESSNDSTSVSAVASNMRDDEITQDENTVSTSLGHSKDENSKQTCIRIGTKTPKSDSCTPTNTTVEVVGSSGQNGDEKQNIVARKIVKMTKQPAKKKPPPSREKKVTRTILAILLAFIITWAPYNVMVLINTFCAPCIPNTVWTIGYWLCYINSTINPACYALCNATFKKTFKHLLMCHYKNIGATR
Nature of the experiment: accumulation of IPX, M2 CHO cells (M2Gq). Set-up: host or cells: CHO cells, stably transfected. To be noted: for E′MAX / τ / Δlog(τ/KA) / RAi: M2Gq (↑IPX); for E′MAX / τ: Table 8; for Δlog(τ/KA): Table 8, to carbachol; for RAi: Table 8, relative to carbachol. As to the method: (§1) To determine level of cAMP, cells in suspension were pre-incubated for 1 h with 0.4 μM [^3H]adenine, washed, and incubated for 10 min in the presence of isobutylmethylxanthine and 10 μM forskolin. […] Incubation was ended by addition of 0.2 ml of 2.5 M HCl to the samples. Samples were applied to alumina columns (1.5 g of alumina per column), washed with 2 ml ammonium acetate (pH=7.0) and eluted from columns with 4 ml ammonium acetate and measured by liquid scintillation spectrometry. […] The incubation was stopped by addition of 0.5 ml of chloroform methanol HCl mixture (2:1:0.1). After separation of water and organic phases, 0.6 ml of water phase was applied to Dowex columns (1.5 g of Dowex per column), washed by 20 ml of 60 mM ammonium formate/5 mM sodium borate buffer and eluted from columns with 4 ml of 1M ammonium formate/0.1 formic acid buffer and measured by liquid scintillation spectrometry.
(§2) Measurements of the production of cAMP and inositol phosphates: Levels of second messengers cAMP and inositol phosphates were determined in radiochemical chromatography assays as described previously. To determine level of cAMP, cells in suspension were pre-incubated for 1 h with 0.4 μM [^3H]adenine, washed, and incubated for 10 min in the presence of isobutylmethylxanthine and 10 μM forskolin. […] Incubation was ended by addition of 0.2 ml of 2.5 M HCl to the samples. Samples were applied to alumina columns (1.5 g of alumina per column), washed with 2 ml ammonium acetate (pH=7.0) and eluted from columns with 4 ml ammonium acetate and measured by liquid scintillation spectrometry. […] For this purpose, new CHO cell lines stably expressing promiscuous G15 G-protein and M2 or M4 receptor were generated by transfection with pCMV/hygro vector and hygromycin selection. To determine the rate of formation of inositol phosphates IPX, suspended cells were pre-incubated with 0.1 μM [^3H]myo-inositol for 60 min, washed, and incubated with 10 mM LiCl for 15 min. […] The incubation was stopped by addition of 0.5 ml of chloroform methanol HCl mixture (2:1:0.1). After separation of water and organic phases, 0.6 ml of water phase was applied to Dowex columns (1.5 g of Dowex per column), washed by 20 ml of 60 mM ammonium formate/5 mM sodium borate buffer and eluted from columns with 4 ml of 1M ammonium formate/0.1 formic acid buffer and measured by liquid scintillation spectrometry.
(§3) For bi-phasic response, curves were inhibitory and stimulatory phase were fitted separately. Operational Model of Functional Agonism
(§4) [formula] where y is functional response at concentration of tested compound x, EMAX is maximal response of the system, KA is equilibrium dissociation constant and nH is slope factor. Eq. 5 was fitted to data from functional experiments. Eq. 5 was fitted to data by the two-step procedure described earlier. […] In the second step, Eq. 5 with EMAX fixed to the value determined in the first step was fitted to individual experimental data sets. Relative Intrinsic Activity

Experiment [3] deals with T1, M2 muscarinic receptor. The experiment can be described thus: accumulation of IPX, M2 CHO cells with promiscuous G15 G-protein (M2Gq+G15). Set-up: expressed in transfected cells; host or cells: CHO cells, pCMV/hygro vector, hygromycin selection. To be noted: for E′MAX / τ / Δlog(τ/KA) / RAi: M2Gq ± G15 (↑IPX); for E′MAX / τ: Table 8; for Δlog(τ/KA): Table 8, to carbachol; for accumulation of IPX: M2 co-transfected with G15, in words; for RAi: Table 8, relative to carbachol. How it is done: Since activation of phospholipase C (PLC) via M2 and M4 receptors is weak, cells were transferred with G15 G-protein to facilitate coupling.
as §1, §2, §3, §4
Muscarinic receptors are also able to stimulate non-preferential signalling pathways.

Take `C[N+](C)(C)CCOC(N)=O` [carbachol, reference compound]: the “accumulation of IPX” value in experiment [1] is reported as “profound accumulation of IPX”. Also, at M2 muscarinic receptor [2], the “E′MAX” value turned out to be 1.91 ± 0.07 fold over basal, the τ was determined as 0.2 ± 0.1 and the “Δlog(τ/KA)” value was found to be 0. On M2 muscarinic receptor [3], the “E′MAX” value amounted to 4.9 ± 0.3 fold over basal, the τ turned out to be 4.5 ± 0.5, the “Δlog(τ/KA)” value was found to be 0 and the “accumulation of IPX” value is on record as “stimulated accumulation of IPX”.
For the compound `C[N+]1(Cc2cccs2)CC=CCC1.[I-]` (stereo not shown) [Compound 7A, 1-methyl-1-[(thiophen-2-yl)methyl]-1,2,3,6-tetrahydropyridin-1-ium iodide], the “accumulation of IPX” value is “negligible increase in IPX” in experiment [1] and “did not stimulate IPX accumulation” at M2 muscarinic receptor [3]. Also, the RAi on M2 muscarinic receptor [2] and on M2 muscarinic receptor [3] was 0 throughout.
With `O=C1CCCN1CC#CCN1CCCC1` [oxotremorine, reference compound], on M2 muscarinic receptor [2], the EC50 (commonly the concentration at which the effect is half-maximal) is 209 nM, binding was put at a Kd of 251 nM, the “E′MAX” value came out at 1.60 ± 0.05 fold over basal and the τ was 0.2 ± 0.1. On M2 muscarinic receptor [2], the RAi is on record as 3.08 ± 0.28 and the “Δlog(τ/KA)” value is −0.49 ± 0.05. Moreover, on M2 muscarinic receptor [3], a half-maximal response (EC50) required 70.8 nM, binding was characterised by a dissociation constant (Kd) of 200 nM, the “E′MAX” value was determined as 4.1 ± 0.3 fold over basal and the τ amounted to 1.9 ± 0.2. Besides, at M2 muscarinic receptor [3], the RAi came out at 2.41 ± 0.22 and the “Δlog(τ/KA)” value is given as −0.38 ± 0.05.
As for `C1=CCN(Cc2cccs2)CC1.Cl` [Compound 6A, 1-[(thiophen-2-yl)methyl]-1,2,3,6-tetrahydropyridin-1-ium chloride], the “accumulation of IPX” value in experiment [1] is “negligible increase in IPX”; at M2 muscarinic receptor [3] it was “did not stimulate IPX accumulation”. Further, the RAi at M2 muscarinic receptor [2] and on M2 muscarinic receptor [3] was 0 throughout.
